In US11957737B2, “Methods of treating microbial infection and inflammation” (Colorado Seminary, Owner and Operator of University of …, priority 2017, dated 2024):

Legend:
E. coli (ATCC 25922) = test: standard broth dilutions susceptibility test, read at 600 nm; format: cell-based
Method: The following methods were used to conduct the experiments described in Examples 1-3, below: The experiments were conducted using the standard broth dilutions susceptibility test (Jorgensen, J. H.; Turnidge, J. D., Susceptibility test methods: dilution and disk diffusion methods. In Manual of Clinical Microbiology, Eleventh Edition, American Society of Microbiology: 2015; pp 1253-73). Briefly, 1 μl of glycerol stock aliquot of E. coli (ATCC 25922) was inculcated into Tryptic Soya agar (TSA) (Sigma Aldrich 22091) plates and incubated at 37° C. for 24 hrs. Subsequently, 3-5 separate colonies were selected and transferred into 4 ml Tryptic Soya broth (TSB) (Sigma Aldrich 22092) and incubated at 37° C. for 24 hrs. After incubation, samples were diluted 4 ml into 50 ml TSB to make E. coli stock. 200 μl samples were then placed into wells of a 96-microwell plate. All samples were prepared in TSB, (Blank) using TSB, ERGO (OXIS International), LF (Sigma Aldrich) and NLF were diluted to 1 mg/ml. The nitration reaction was prepared following the method reported by Selzle et al (Determination of nitration degrees for the birch pollen allergen Bet v 1. Analytical and Bioanalytical Chemistry 2013, 405(27):8945-49). According to this procedure, 400 μl aliquots of 5.0 mg/ml (±5%) LF in aqueous solution were pipetted into glass vials. […] Using the plate reader (Tecan Infinite, M1000 PRO). […]

[1] = ferrous iron (Fe++) binding capacity of LF; details: FIG. 3
Text: As noted above, LF binds ferrous iron (Fe++) and controls iron distribution throughout the body and its ability to bind to inflammatory and other cell membranes and impact the activities of these cells through its iron binding activities and other mechanisms. The inventors hypothesized that the antibacterial effect may be linked to the iron binding activity of LF and that this antibacterial effect may be disrupted by nitration.
However, sodium peroxinitrite caused changes that went far beyond the mere nitration of a few tyrosine residues to include destruction of tyrosine and tryptophan which at least in part were converted to unidentified reaction products. Nitration can occur as a consequence of the formation of reactive nitrogen species in the body and as a result of drug or chemical reactions, and/or environmental toxins in polluted air, water, or other routes of intake.

C[N+](C)(C)[C@@H](Cc1c[nH]c(=S)[nH]1)C(=O)[O-] [ERGO, 3-(2-Sulfanylidene-1,3-dihydroimidazol-4-yl)-2-(trimethylazaniumyl)propanoate]
growth of E. coli (E. coli (ATCC 25922); LF 1 mg/ml or 2 mg/ml, ERGO 5 mM or 50 mM, compared to growth of E. coli without additions, FIGS. 1A and 1B): reduced the growth of E. coli
dependence of retained anti-bacterial activity on ERGO concentration (E. coli (ATCC 25922); LF exposed to nitrating agents, various concentrations of ERGO, FIG. 2): related to the concentration of ERGO added
effect of ERGO on the ferrous iron (Fe++) binding capacity of LF [1]: does not appear that the ability of ERGO to increase the anti-bacterial activity of LF results from binding of Fe++ on LF
